{"source": "patent US9017692B2", "about": "“Antimicrobial agent, bacterial strain, biosynthesis, and methods of use” (priority 2011, dated 2015)", "key": {"E. coli O157:H7 EDL 933": {"tested_on": "E. coli O157:H7 EDL 933", "assay": "Spot-on-lawn antimicrobial activity", "assay_type": "cell-based, Escherichia coli", "details": "broth medium LB", "protocol": "(§1) Spot-on-lawn method [He, Z., et al., Appl. Environ. Microbiol., (2007) 73:168-178] was used for the bioassay of antimicrobial activity. Bacterial indicators were incubated at 37° C. for 24 h, except Pseudomonas putida, Clostridium difficile and methycillin resistant Staphylococcus aureus which were incubated for 48 h (Table 1). The indicator overlay was prepared by pouring 10 ml soft agar (seeded with 10 μL indicator culture) onto tryptose agar as basal medium in a petri dish. Purified antimicrobials were two-fold serially diluted and aliquots (10 μL each) were spotted onto the soft agar. The plates were incubated overnight and inspected for the presence of growth inhibition zones. Antimicrobial activity was expressed in arbitrary units (AU)/mL; this value is the reciprocal of the highest dilution displaying a zone of inhibition corresponding to 1 mL of the non-diluted antimicrobial preparation.\n(§2) Purified paenibacterin was used for the antimicrobial spectrum test. Microorganisms tested for sensitivity to this compound included pathogenic (e.g., Salmonella Typhimurium, Escherichia coli O157:H7, Listeria monocytogenes, and Staphylococcus aureus) and non-pathogenic (e.g., Escherichia coli K-12, Pseudomonas putida, and Enterococcus faecalis) bacteria (Table 1)."}, "[1]": {"tested_on": "E. coli O157:H7 ATCC 43889", "assay": "Spot-on-lawn antimicrobial activity", "assay_type": "cell-based, Escherichia coli", "details": "broth medium LB", "protocol": "as §1, §2"}, "[2]": {"tested_on": "Escherichia coli O157:H7 EDL933", "assay": "MIC, CLSI broth microdilution, foodborne pathogens", "assay_type": "cell-based", "protocol": "(§3) Plates were incubated at 35° C. for 24 h."}, "[3]": {"tested_on": "Listeria monocytogenes Scott A", "assay": "MIC, CLSI broth microdilution, foodborne pathogens", "assay_type": "cell-based", "protocol": "as §3"}, "Yersinia enterocolitica": {"tested_on": "Yersinia enterocolitica", "assay": "MIC, CLSI broth microdilution, foodborne pathogens", "assay_type": "cell-based", "protocol": "as §3"}, "[4]": {"tested_on": "Bacillus cereus ATCC14579", "assay": "MIC, CLSI broth microdilution, foodborne pathogens", "assay_type": "cell-based", "protocol": "as §3"}, "Escherichia coli O157:H7": {"tested_on": "Escherichia coli O157:H7", "assay": "Antimicrobial spectrum test", "assay_type": "cell-based", "details": "gram-negative pathogens such as Escherichia coli O157:H7", "protocol": "as §1, §2"}, "L. innocua ATCC 33090": {"tested_on": "L. innocua ATCC 33090", "assay": "Spot-on-lawn antimicrobial activity", "assay_type": "cell-based, Listeria innocua", "details": "TSBYE", "protocol": "as §1, §2"}, "MRSA ATCC 43300 SAU.399": {"tested_on": "MRSA ATCC 43300 SAU.399", "assay": "microbe, parasite or virus in culture", "details": "SAU.399, MRSA ATCC 43300; NBS 96-well plates", "protocol": "(§4) The activity of paenibacterin against several strains of Gram-positive and Gram-negative foodborne pathogens is summarized in Table 10. The data is reported as minimum inhibitory concentrations (MIC) as an average of three replicates for paenibacterin against the various listed bacterial strains. […] MICs were determined according to the CLSI broth microdilution method (see, Clinical and Laboratory Standards Institute (CLSI). 2009. Methods for dilution antimicrobial susceptibility tests for bacteria that grow aerobically; approved standard. […]. CLSI, Wayne, Pa.). Briefly, HPLC-purified paenibacterin was dissolved in methanol and diluted to appropriate concentration with cation-adjusted Mueller-Hinton II broth (Difco). Aliquots (25 μl) of serially-diluted paenibacterin was dispensed into wells of a 96-well plate; an equal amount of 1/10 diluted overnight bacterial culture was added to wells. Plates were incubated at 35° C. for 24 h. Cell growth after incubation was examined and determined using a microtiter plate reader at 600 nm. Concentration of paenibacterin is determined based on a molecular weight of 1604 Da.\n(§5) The activity of paenibacterin was further tested against clinical isolates of the following Gram-positive bacteria: methicillin-sensitive Staphylococcus aureus (MSSA), methicillin-resistant S. aureus (MRSA), vancomycin-sensitive Enterococcus faecalis, vancomycin-resistant E. faecalis (VRE), Streptococcus pneumoniae, and laboratory derived daptomycin-resistant (DR) MSSA, MRSA, and VRE strains. The MICs were determined using the above described CLSI broth microdilution method, in which the method was performed with non-binding surface coated (NBS) 96-well plates."}, "[5]": {"tested_on": "DR-MSSA from SAU.42 SAU.278", "assay": "microbe, parasite or virus in culture", "details": "SAU.278, DR-MSSA from SAU.42; NBS 96-well plates", "protocol": "as §4, §5"}, "[6]": {"tested_on": "DR-VRE from EFS.807 EFS.2731", "assay": "microbe, parasite or virus in culture", "details": "EFS.2731, DR-VRE from EFS.807; NBS 96-well plates", "protocol": "as §4, §5"}, "[7]": {"tested_on": "DS-VRE ATCC 700802 EFS.807", "assay": "microbe, parasite or virus in culture", "details": "EFS.807, DS-VRE ATCC 700802; NBS 96-well plates", "protocol": "as §4, §5"}, "MSSA ATCC 29213 SAU.42": {"tested_on": "MSSA ATCC 29213 SAU.42", "assay": "microbe, parasite or virus in culture", "details": "SAU.42, MSSA ATCC 29213; NBS 96-well plates", "protocol": "as §4, §5"}, "WT ATCC 49619 SPN.31": {"tested_on": "WT ATCC 49619 SPN.31", "assay": "microbe, parasite or virus in culture", "details": "SPN.31, WT ATCC 49619; NBS 96-well plates", "protocol": "as §4, §5"}, "[8]": {"tested_on": "DR-MRSA from MW2 SP SAU.1616", "assay": "microbe, parasite or virus in culture", "details": "SAU.1616, DR-MRSA from MW2 SP; NBS 96-well plates", "protocol": "as §4, §5"}, "WT ATCC 29212 EFS.43": {"tested_on": "WT ATCC 29212 EFS.43", "assay": "microbe, parasite or virus in culture", "details": "EFS.43, WT ATCC 29212; NBS 96-well plates", "protocol": "as §4, §5"}, "[9]": {"tested_on": "S. aureus (methycillin-resistant)", "assay": "Spot-on-lawn antimicrobial activity", "assay_type": "cell-based, Staphylococcus aureus", "details": "TSBYE", "protocol": "as §1, §2"}, "B. cereus ATCC 11178": {"tested_on": "B. cereus ATCC 11178", "assay": "Spot-on-lawn antimicrobial activity", "assay_type": "cell-based, Bacillus cereus", "details": "TSBYE", "protocol": "as §1, §2"}, "Streptococcus pneumoniae": {"tested_on": "Streptococcus pneumoniae", "assay": "MIC, summary of Table 13", "assay_type": "cell-based", "details": "NBS plates", "protocol": "as §4, §5"}, "Staphylococcus aureus": {"tested_on": "Staphylococcus aureus", "assay": "MIC, summary of Table 13", "assay_type": "cell-based", "details": "Staphylococcus aureus strains of Table 13; NBS plates", "protocol": "as §4, §5"}, "Enterococcus faecalis": {"tested_on": "Enterococcus faecalis", "assay": "MIC, summary of Table 13", "assay_type": "cell-based", "details": "Enterococcus faecalis strains of Table 13; NBS plates", "protocol": "as §4, §5"}, "[10]": {"details": "based on molecular weight of 1604 Da"}}, "data": [{"substance": "paenibacterin", "values": [{"measurement": "Antimicrobial activity (AU/ml)", "setting": "E. coli O157:H7 EDL 933", "result": 1600, "unit": "AU/ml"}, {"measurement": "Antimicrobial activity (AU/ml)", "setting": "[1]", "result": 1600, "unit": "AU/ml"}, {"measurement": "Minimum inhibitory concentration (MIC) Average", "setting": "[2]; average of three replicates", "result": 7.81, "unit": "µg/mL"}, {"measurement": "Minimum inhibitory concentration (MIC) Average", "setting": "[2]; [10]", "result": 4.87, "unit": "µM"}, {"measurement": "Minimum inhibitory concentration (MIC) Average", "setting": "[3]; average of three replicates", "result": 1.95, "unit": "µg/mL"}, {"measurement": "Minimum inhibitory concentration (MIC) Average", "setting": "[3]; [10]", "result": 1.22, "unit": "µM"}, {"measurement": "Minimum inhibitory concentration (MIC) Average", "setting": "Yersinia enterocolitica; average of three replicates", "result": 3.26, "unit": "µg/mL"}, {"measurement": "Minimum inhibitory concentration (MIC) Average", "setting": "Yersinia enterocolitica; [10]", "result": 2.03, "unit": "µM"}, {"measurement": "Minimum inhibitory concentration (MIC) Average", "setting": "[4]; average of three replicates", "result": 15.6, "unit": "µg/mL"}, {"measurement": "Minimum inhibitory concentration (MIC) Average", "setting": "[4]; [10]", "result": 9.74, "unit": "µM"}, {"measurement": "Antimicrobial activity (in words)", "setting": "Escherichia coli O157:H7", "result": "good activity"}, {"measurement": "Antimicrobial activity (AU/ml)", "setting": "L. innocua ATCC 33090", "result": 1600, "unit": "AU/ml"}, {"measurement": "Minimum inhibitory concentration (MIC)", "setting": "MRSA ATCC 43300 SAU.399", "result": 32, "unit": "µg/mL"}, {"measurement": "Minimum inhibitory concentration (MIC)", "setting": "[5]", "result": 64, "unit": "µg/mL"}, {"measurement": "Minimum inhibitory concentration (MIC)", "setting": "[6]", "result": 8, "unit": "µg/mL"}, {"measurement": "Minimum inhibitory concentration (MIC)", "setting": "[7]", "result": 64, "unit": "µg/mL"}, {"measurement": "Minimum inhibitory concentration (MIC)", "setting": "MSSA ATCC 29213 SAU.42", "result": 32, "unit": "µg/mL"}, {"measurement": "Minimum inhibitory concentration (MIC)", "setting": "WT ATCC 49619 SPN.31", "result": 64, "unit": "µg/mL"}, {"measurement": "Minimum inhibitory concentration (MIC)", "setting": "[8]", "result": 32, "unit": "µg/mL"}, {"measurement": "Minimum inhibitory concentration (MIC)", "setting": "WT ATCC 29212 EFS.43", "result": "32 to 64", "unit": "µg/mL"}, {"measurement": "Antimicrobial activity (AU/ml)", "setting": "[9]", "result": 100, "unit": "AU/ml"}, {"measurement": "Antimicrobial activity (AU/ml)", "setting": "B. cereus ATCC 11178", "result": 200, "unit": "AU/ml"}, {"measurement": "MIC", "setting": "Streptococcus pneumoniae", "result": "32 to 64", "unit": "µg/mL"}, {"measurement": "MIC", "setting": "Staphylococcus aureus", "result": "32 to 64", "unit": "µg/mL"}, {"measurement": "MIC", "setting": "Enterococcus faecalis", "result": "32 to 64", "unit": "µg/mL"}]}]}
